Data from patent US20260327216A1, “SUBSTITUTED OXAZOLONE COMPOUND FOR DECREASING LEVELS OF IKZF I-4 PROTEINS” (BRISTOL-MYERS SQUIBB COMPANY, priority 2023, published 2026).

Target: IKZF2 Helios (Homo sapiens, UniProt Q96SW2+Q9UKS7)
Experiment: Jurkat Cellular Degradation Assay, IKZF2
Assay type: cell-based
Set-up: endogenous in cells
Settings: 72 h, Jurkat cells; for Dmax: Jurkat, human, 100% = complete degradation, 0% = no detectable degradation, read-out: IKZF2 Helios max % deg. observed
Method: Jurkat cells were plated at 80,000 cells/well in 40 μL RPMI+10% FBS in a 384-well cell culture plate prior to using acoustic dispensing technology for adding a compound of interest. Cell cultures were incubated for 72 h at 37° C. and 5% CO2. In order to facilitate analysis, cell cultures were spun down at 200 rpm for 5 min and the supernatant was discarded. After shaking the plate to dislodge the cell pellet, cells were resuspended in 50 μL of Fixation Buffer (eBioscience FoxP3 buffer set 00-5523-00) for 60 min at room temperature. After centrifuging and discarding the supernatant, cells were permeabilized with 50 μL of Permeabilization buffer (eBioscience FoxP3 buffer set 00-5523-00) for 10 min at room temperature. Following permeabilization, cells were spun down and the supernatant was replaced with 20 μL fluorescently labelled antibodies against Helios, Ikaros and Aiolos or corresponding Isotype controls in 1× Permeabilization buffer (Ikaros-Alexa488 [Biolegend, Cat #368408, 1:50], Helios-PE [CST, Cat #29360, 1:50], Aiolos-Alexa647 [Biolegend, Cat #371106 Biolegend, 1:25]) and staining reactions were incubated for 1 h at room temperature while protected from light. Subsequently, 30 μL of 1× Permeabilization buffer was added prior to centrifuging the cells and discarding the supernatant. Stained cells were resuspended in 25 μL of flow cytometry staining buffer [PBS+0.2% bovine serum albumin (BSA)] and analyzed using an Intellicyt Ique Plus flow cytometer.
Table A-1 lists the maximum observed degradation of the IKZF1 protein, IKZF2 protein, and IKZF3 protein as measured in the Jurkat Cellular Degradation assay. The results in Table A-1 were rounded to two digits. In the Jurkat Cellular Degradation assay, a value of 100% indicated no detectable protein remaining or complete degradation of the protein; and a value of 0% indicated no detectable degradation of the protein by the test compound.

Sequence of IKZF2 Helios (Q9UKS7 whole entry): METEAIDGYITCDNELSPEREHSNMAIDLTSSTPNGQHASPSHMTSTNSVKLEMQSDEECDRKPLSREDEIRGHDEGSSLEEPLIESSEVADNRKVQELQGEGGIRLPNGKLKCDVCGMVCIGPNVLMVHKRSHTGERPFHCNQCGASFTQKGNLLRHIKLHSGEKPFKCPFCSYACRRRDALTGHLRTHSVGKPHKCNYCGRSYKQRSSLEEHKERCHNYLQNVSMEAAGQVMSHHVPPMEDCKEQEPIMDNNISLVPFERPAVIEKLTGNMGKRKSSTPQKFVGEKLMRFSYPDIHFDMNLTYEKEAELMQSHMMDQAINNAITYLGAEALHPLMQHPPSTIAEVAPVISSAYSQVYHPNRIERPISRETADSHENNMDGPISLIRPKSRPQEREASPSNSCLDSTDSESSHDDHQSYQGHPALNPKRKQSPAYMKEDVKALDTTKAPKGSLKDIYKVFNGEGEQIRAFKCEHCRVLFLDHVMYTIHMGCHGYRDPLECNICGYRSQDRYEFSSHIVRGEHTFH
Sequence of IKZF2 Helios (Q96SW2 whole entry): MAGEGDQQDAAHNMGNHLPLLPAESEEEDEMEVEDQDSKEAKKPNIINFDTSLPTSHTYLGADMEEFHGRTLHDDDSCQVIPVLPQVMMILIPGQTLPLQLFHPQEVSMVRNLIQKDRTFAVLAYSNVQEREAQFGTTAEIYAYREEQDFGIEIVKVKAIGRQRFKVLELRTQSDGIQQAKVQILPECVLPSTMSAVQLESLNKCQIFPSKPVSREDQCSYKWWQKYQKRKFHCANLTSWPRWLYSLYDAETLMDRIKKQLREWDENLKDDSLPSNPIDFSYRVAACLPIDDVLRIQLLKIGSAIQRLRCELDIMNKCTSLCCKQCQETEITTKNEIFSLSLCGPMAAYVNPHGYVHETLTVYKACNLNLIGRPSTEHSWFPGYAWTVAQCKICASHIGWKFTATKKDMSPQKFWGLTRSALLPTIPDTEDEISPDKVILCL
Sequence of IKZF2 Helios (Q16531 whole entry partner): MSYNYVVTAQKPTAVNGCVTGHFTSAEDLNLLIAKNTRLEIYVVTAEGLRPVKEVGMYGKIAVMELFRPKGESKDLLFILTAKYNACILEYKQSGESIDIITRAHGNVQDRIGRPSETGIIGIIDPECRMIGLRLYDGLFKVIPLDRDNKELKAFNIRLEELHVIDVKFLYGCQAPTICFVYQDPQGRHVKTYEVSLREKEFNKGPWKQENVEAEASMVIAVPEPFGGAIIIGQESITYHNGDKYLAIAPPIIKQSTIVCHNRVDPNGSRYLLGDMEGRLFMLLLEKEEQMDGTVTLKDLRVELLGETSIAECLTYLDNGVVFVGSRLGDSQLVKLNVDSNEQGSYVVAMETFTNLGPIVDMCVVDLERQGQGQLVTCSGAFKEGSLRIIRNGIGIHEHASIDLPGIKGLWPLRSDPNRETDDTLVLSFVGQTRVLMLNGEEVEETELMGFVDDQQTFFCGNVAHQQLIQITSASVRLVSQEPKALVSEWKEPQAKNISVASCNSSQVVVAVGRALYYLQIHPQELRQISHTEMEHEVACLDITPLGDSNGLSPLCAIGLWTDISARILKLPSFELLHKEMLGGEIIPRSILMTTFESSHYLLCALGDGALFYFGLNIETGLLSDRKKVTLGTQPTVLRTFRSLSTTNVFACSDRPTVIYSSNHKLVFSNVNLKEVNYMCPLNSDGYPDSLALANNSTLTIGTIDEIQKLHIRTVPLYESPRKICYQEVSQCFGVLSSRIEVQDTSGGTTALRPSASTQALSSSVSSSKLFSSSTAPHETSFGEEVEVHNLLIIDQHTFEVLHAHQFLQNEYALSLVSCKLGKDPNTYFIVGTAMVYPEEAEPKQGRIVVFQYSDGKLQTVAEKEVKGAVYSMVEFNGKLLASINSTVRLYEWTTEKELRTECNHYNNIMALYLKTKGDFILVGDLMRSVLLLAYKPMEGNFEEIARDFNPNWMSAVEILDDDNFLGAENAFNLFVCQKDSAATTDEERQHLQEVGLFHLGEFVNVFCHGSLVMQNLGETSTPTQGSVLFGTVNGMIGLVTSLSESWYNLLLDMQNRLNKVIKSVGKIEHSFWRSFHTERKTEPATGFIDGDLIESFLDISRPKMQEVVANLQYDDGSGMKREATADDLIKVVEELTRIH

## O=C1CCC(n2cc(-c3ccccc3)oc2=O)C(=O)N1 (stereo not drawn) [Comparative Compound A, 3-(2-oxo-5-phenyloxazol-3(2H)-yl)piperidine-2,6-dione]
  Dmax: < 30%

## Cc1cc(-c2ccc(-c3cn(C4CCC(=O)NC4=O)c(=O)o3)c(F)c2)nc(N)c1OC(F)F (stereo not drawn) [Example 1, 3-(5-(4-(6-Amino-5-(difluoromethoxy)-4-methylpyridin-2-yl)-2-fluorophenyl)-2-oxooxazol-3(2H)-yl)piperidine-2,6-dione]
Concentration reducing protein level by 50% vs DMSO
  DC50: 17.9 nM
  Dmax: > 90%
